The record followed here is patent publication US8084431B2, “Method for inhibiting activation of macrophages, inhibiting formation of osteoclasts, inhibiting function of osteoclasts, and/or activating osteoblasts” (China Medical University, priority 2008, dated 2011).

Read-outs that look alike come from different tables or passages of the source.

Assay [1] deals with myelocytes of rats. Nature of the assay: Formation of osteoclasts from rat myelocytes (RANKL + M-CSF, TRAP stain). It is filed as cell-based, Wistar rats. Particulars: Rattus norvegicus, Osteoclast, 216 h, 10 nM, 9 days. On the procedure:
Myelocytes were first prepared. Male Wistar rats with the body weight of 250 g to 300 g were used to prepare myelocytes. Under the condition of anaesthesia, the femurs of the rats were taken, and myelocytes were washed out with a phosphate buffer solution. […] After incubation for 9 days, monocytes in the marrow differentiated into osteoclasts. The osteoclasts were stained with a TRAP (tartrate-resistant acid phosphatase) stain reagent (Sigma, Louis, Mo., USA), and the number of the osteoclasts was calculated. Besides the same RANKL and M-CSF as the control group, various concentrations (0, 5, 25, 50, and 100 μM) of kinsenoside or 10 nM of estradiol (Wako, Japan) were added into culture plates, respectively. Then, rat myelocytes were incubated for 9 days, and the situation that the myelocytes differentiated into osteoclasts was observed. The percentage of the inhibition effect of kinsenoside and estradiol on the formation of osteoclasts was calculated with the following formula, and the result is shown in Table 9. Inhibition percentage (%)=(the number of osteoclasts of the control group−the number of osteoclasts of the experimental group)/the number of osteoclasts of the control group×100% In addition to the aforesaid RANKL, kinsenoside, and/or estradiol, the inhibitor of estradiol, Fulvestrant (Sigma, Louis, Mo., USA) (1 nM), was also added into culture plates. Then, rat myelocytes were incubated for 9 days, and the situation that the myelocytes differentiated into osteoclasts was observed. The percentage of the inhibition effect of kinsenoside on the formation of osteoclasts was calculated, and the result is shown in Table 9.

Assay [2] concerns macrophages RAW 264.7. Nature of the assay: Formation of osteoclasts from macrophages RAW 264.7 (RANKL, TRAP stain). It is filed as cell-based. The note with it: Mus musculus, RAW264.7, 120 h; 10 nM, RANKL 50 ng/ml, 5 days; read-out: inhibition percentage. On the procedure: If macrophages RAW 264.7 are incubated in culture plates containing 50 ng/ml of differentiation inducer, RANKL, they usually differentiate into osteoclasts after 5 days. In Experiment H, various concentrations (0, 10, and 50 μM) of kinsenoside or 10 nM of estradiol were added into culture plates containing macrophages RAW 264.7, respectively, and the macrophages RAW 264.7 were incubated for 5 days. […] The number of osteoclasts was counted, and the inhibition percentage of the formation of osteoclasts was calculated with the following formula, and the result is shown in Table 11. Inhibition percentage=(the number of osteoclasts in the control group−the number of osteoclasts in the experimental group)/the number of osteoclasts in the control group×100%

With `C[C@]12CC[C@@H]3c4ccc(O)cc4CC[C@H]3[C@@H]1CC[C@@H]2O` [estradiol, reference compound], the inhibition (in general, the change of the read-out against control, counted positive when it falls) at 0.01 µM stood at 24 ± 13.5% in assay [1] (with Fulvestrant 1 nM, read-out: inhibition percentage Experimental Group II); 45.7 ± 10.5% in assay [1] (without Fulvestrant, read-out: inhibition percentage Experimental Group I); 61 ± 16% in assay [2].
